In PubChem BioAssay AID720624 (Broad Institute, 2013) one finds AC50 data, which are given here for five molecules.

Records with an inconclusive call do not appear.

This assay concerns SNB-75 viability, CellTiter-Glo ATP luminescence, 8-48 h. In words: SNB-75 astrocytoma cell viability loss, late-stage follow-up, mechanism study for HRAS target identification, CellTiter-Glo ATP luminescence, several timepoints, dry powder (AID 720624). (In general: In ATP-based viability assays light output follows the ATP content of the culture.)

One may read the AC50 as the midpoint of the concentration-response curve, whichever way the signal moves. `Cc1onc(C(=O)N2CCN(C(c3ccc(Cl)cc3)c3ccc(Cl)cc3)CC2)c1[N+](=O)[O-]`: the AC50 was 629 nM (measured here: 8 h treatment), 490 nM (measured here: 24 h treatment) and 1050 nM (measured here: 48 h treatment).
For `COc1ccc(N(C(=O)CCl)C(C(=O)NCCc2ccccc2)c2cccs2)cc1Cl` (stereo not given) the same measures were 298 nM, 246 nM and 319 nM.
`CC(C)(C)OC(=O)NCCOCCOCCOc1ccc(N(C(=O)CCl)C(C(=O)NCCc2ccccc2)c2cccs2)cc1Cl` (stereo not given): the half-maximal activity concentration (AC50) by setting is: (measured here: 8 h treatment) 787 nM; (measured here: 24 h treatment) 398 nM; (measured here: 48 h treatment) 1030 nM.
In turn, `C#CCCCC(=O)NCCOCCOCCOc1ccc(N(C(=O)CCl)C(C(=O)NCCc2ccccc2)c2cccs2)cc1Cl` (stereo not given) displayed a concentration at half-maximal activity (AC50) (measured here: 8 h treatment) of 3810 nM, a half-maximal activity concentration (AC50) (measured here: 24 h treatment) of 2480 nM and a half-maximal activity concentration (AC50) (measured here: 48 h treatment) of 4780 nM.
For `COC(=O)c1ccc([C@@H]2c3[nH]c4ccccc4c3C[C@@H](C(=O)OC)N2C(=O)CCl)cc1` the same measures were 479 nM, 224 nM and 418 nM.
